Here are results for 26 compounds from US7531554B2, “4-oxoquinoline compound and use thereof as HIV integrase inhibitor” (Japan Tobacco Inc., priority 2004, dated 2009).

The target in the experiment is T1, HIV integrase (Human immunodeficiency virus type 1 group M subtype B, UniProt P12497, F1332H).
T1 construct: HIV integrase full length gene (J. Virol., 67, 425-437 (1993)) in which phenylalanine at codon 185 was substituted by histidine; made in house; host or cells: Escherichia coli BL21(DE3)
Description: Determination of enzyme (HIV integrase) inhibitory activity. The class given is biochemical. The conditions noted are these: recombinant integrase protein (F185H), donor DNA/target DNA, absorbance at 450 nm. In a few lines:
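Full-length HIV integrase bearing F185H mutation, E. coli-expressed and purified, preincubated with compound on plate-bound biotinylated donor DNA for 60 min at 37 °C; digoxigenin-labelled target DNA then added for 10 min. Strand transfer detected by peroxidase anti-digoxigenin ELISA at 450 nm; IC50 from inhibition versus no-compound and no-enzyme controls.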

Structures are written as SMILES. Counter-ions that a name gives are not always drawn.

One may read the IC50 as the concentration that gives 50% inhibition.

With `COc1cc2c(cc1Cc1c(F)cccc1C(F)(F)F)c(=O)c(C(=O)O)cn2[C@H](CO)C(C)C` [Example 1-12, 6-(2-fluoro-6-(trifluoromethyl)benzyl)-1-((1S)-1-(hydroxymethyl)-2-methylpropyl)-7-methoxy-4-oxo-1,4-dihydroquinoline-3-carboxylic acid], the IC50 came out at 260 nM.
As for `CC(C)[C@@H](CO)n1cc(C(=O)O)c(=O)c2cc(Cc3cccc(Cl)c3F)c(O[C@@H]3CCN(C)C3)cc21` [Example 4-55, 6-(3-chloro-2-fluorobenzyl)-1-((1S)-1-(hydroxymethyl)-2-methylpropyl)-7-((3R)-1-methylpyrrolidin-3-yloxy)-4-oxo-1,4-dihydroquinoline-3-carboxylic acid trifluoroacetate], the figure is 7.6 nM.
Regarding `CC(C)[C@@H](CO)n1cc(C(=O)O)c(=O)c2cc(Cc3cccc(Cl)c3F)cc(OCc3ccccc3)c21` [Example 3-9, 8-benzyloxy-6-(3-chloro-2-fluorobenzyl)-1-((1S)-1-(hydroxymethyl)-2-methylpropyl)-4-oxo-1,4-dihydroquinoline-3-carboxylic acid], the IC50 came to 5 nM.
The figure for `COc1cc2c(cc1Cc1cccc(Cl)c1F)c(=O)c(C(=O)O)cn2[C@H](CO)C(C)(C)S(C)(=O)=O` [Example 2-6, 6-(3-chloro-2-fluorobenzyl)-1-((1R)-1-(hydroxymethyl)-2-mesyl-2-methylpropyl)-7-methoxy-4-oxo-1,4-dihydroquinoline-3-carboxylic acid] is 3.8 nM; for `CC(C)([C@@H](CO)n1cc(C(=O)O)c(=O)c2cc(Cc3cccc(Cl)c3F)ccc21)S(C)(=O)=O` [Example 2-10, 6-(3-chloro-2-fluorobenzyl)-1-((1R)-1-(hydroxymethyl)-2-mesyl-2-methylpropyl)-4-oxo-1,4-dihydroquinoline-3-carboxylic acid] it is 4.2 nM; for `CC(C)[C@@H](CO)n1cc(C(=O)O)c(=O)c2cc(Cc3cccc(Cl)c3F)c(OCc3ccccn3)cc21` [Example 4-59, 6-(3-chloro-2-fluorobenzyl)-1-((1S)-1-(hydroxymethyl)-2-methylpropyl)-4-oxo-7-(pyridin-2-ylmethoxy)-1,4-dihydroquinoline-3-carboxylic acid] it is 3.6 nM.
The figure for `CC(C)[C@@H](CO)n1cc(C(=O)O)c(=O)c2cc(Cc3cccc(Cl)c3F)c(N3CC[C@H](N)C3)cc21` [Example 4-38, 7-((3S)-3-aminopyrrolidin-1-yl)-6-(3-chloro-2-fluorobenzyl)-1-((1S)-1-(hydroxymethyl)-2-methylpropyl)-4-oxo-1,4-dihydroquinoline-3-carboxylic acid] is 12 nM.
The figure for `CC(C)[C@@H](CO)n1cc(C(=O)O)c(=O)c2cc(Cc3cccc(Cl)c3F)c(OC3CCNCC3)cc21` [Example 4-25, 6-(3-chloro-2-fluorobenzyl)-1-((1S)-1-(hydroxymethyl)-2-methylpropyl)-4-oxo-7-(piperidin-4-yloxy)-1,4-dihydroquinoline-3-carboxylic acid] is 4.1 nM; for `CC(C)[C@@H](CO)n1cc(C(=O)O)c(=O)c2cc(Cc3cccc(Cl)c3F)c(OCC(=O)N(C)C)cc21` [Example 4-53, 6-(3-chloro-2-fluorobenzyl)-7-((dimethylaminocarbonyl)methoxy)-1-((1S)-1-(hydroxymethyl)-2-methylpropyl)-4-oxo-1,4-dihydroquinoline-3-carboxylic acid] it is 5 nM; for `CC(C)[C@@H](CO)n1cc(C(=O)O)c(=O)c2cc(Cc3cccc(Cl)c3F)c(OCc3ccncc3)cc21` [Example 4-60, 6-(3-chloro-2-fluorobenzyl)-1-((1S)-1-(hydroxymethyl)-2-methylpropyl)-4-oxo-7-(pyridin-4-ylmethoxy)-1,4-dihydroquinoline-3-carboxylic acid] it is 4.3 nM.
As to `CC(C)[C@@H](CO)n1cc(C(=O)O)c(=O)c2cc(Cc3cccc(Cl)c3F)c(OCc3ccccc3)cc21` [Example 4-43, 7-benzyloxy-6-(3-chloro-2-fluorobenzyl)-1-((1S)-1-(hydroxymethyl)-2-methylpropyl)-4-oxo-1,4-dihydroquinoline-3-carboxylic acid], the IC50 was 6.4 nM.
As for `CC(C)[C@@H](CO)n1cc(C(=O)O)c(=O)c2cc(Cc3cccc(Cl)c3F)c(N3CCN(C)CC3)cc21` [Example 4-10, 6-(3-chloro-2-fluorobenzyl)-1-((1S)-1-(hydroxymethyl)-2-methylpropyl)-7-(4-methylpiperazin-1-yl)-4-oxo-1,4-dihydroquinoline-3-carboxylic acid], the IC50 was found to be 6.2 nM.
As for `CS(=O)(=O)CC[C@@H](CO)n1cc(C(=O)O)c(=O)c2cc(Cc3cccc(Cl)c3F)ccc21` [Example 2-17, 6-(3-chloro-2-fluorobenzyl)-1-((1S)-1-(hydroxymethyl)-3-mesylpropyl)-4-oxo-1,4-dihydroquinoline-3-carboxylic acid], the figure is 14 nM; as for `CC(C)[C@@H](CO)n1cc(C(=O)O)c(=O)c2cc(Cc3cccc(Cl)c3F)c(OCCCN(C)C)cc21` [Example 4-6, 6-(3-chloro-2-fluorobenzyl)-7-(3-(dimethylamino)propoxy)-1-((1S)-1-(hydroxymethyl)-2-methylpropyl)-4-oxo-1,4-dihydroquinoline-3-carboxylic acid], 6.3 nM; as for `COc1cc2c(cc1Cc1cccc(Cl)c1F)c(=O)c(C(=O)O)cn2[C@H](CO)[C@@H](C)OC` [Example 2-11, 6-(3-chloro-2-fluorobenzyl)-1-((1R,2R)-1-(hydroxymethyl)-2-methoxypropyl)-7-methoxy-4-oxo-1,4-dihydroquinoline-3-carboxylic acid], 5 nM.
The figure for `CS(=O)(=O)C[C@@H](CO)n1cc(C(=O)O)c(=O)c2cc(Cc3cccc(Cl)c3F)ccc21` [Example 2-8, 6-(3-chloro-2-fluorobenzyl)-1-((1R)-1-(hydroxymethyl)-2-mesylethyl)-4-oxo-1,4-dihydroquinoline-3-carboxylic acid] is 20 nM; for `CC(C)[C@@H](CO)n1cc(C(=O)O)c(=O)c2cc(Cc3cccc(Cl)c3F)c(OCCN3CCCC3)cc21` [Example 4-17, 6-(3-chloro-2-fluorobenzyl)-1-((1S)-1-(hydroxymethyl)-2-methylpropyl)-4-oxo-7-(2-(pyrrolidin-1-yl)ethoxy)-1,4-dihydroquinoline-3-carboxylic acid] it is 11 nM; for `CC(C)[C@@H](CO)n1cc(C(=O)O)c(=O)c2cc(Cc3cccc(Cl)c3F)cc(OCCN(C)C)c21` [Example 3-6, 6-(3-chloro-2-fluorobenzyl)-8-(2-(dimethylamino)ethoxy)-1-((1S)-1-(hydroxymethyl)-2-methylpropyl)-4-oxo-1,4-dihydroquinoline-3-carboxylic acid] it is 11 nM.
The figure for `CC(C)[C@@H](CO)n1cc(C(=O)O)c(=O)c2cc(Cc3cccc(Cl)c3F)c(OC3CCN(C)CC3)cc21` [Example 4-14, 6-(3-chloro-2-fluorobenzyl)-1-((1S)-1-(hydroxymethyl)-2-methylpropyl)-7-(1-methylpiperidin-4-yloxy)-4-oxo-1,4-dihydroquinoline-3-carboxylic acid] is 5.4 nM; for `O=C(O)c1cn2c3c(cc(Cc4cccc(Cl)c4F)cc3c1=O)OCC2CO` (centres unmarked) [Example 5-2, 8-(3-chloro-2-fluorobenzyl)-3-hydroxymethyl-6-oxo-2,3-dihydro-6H-1-oxa-3a-aza-phenalene-5-carboxylic acid] it is 47 nM; for `CC(C)[C@@H](CO)n1cc(C(=O)O)c(=O)c2cc(Cc3cccc(Cl)c3F)c(N3CC[C@H](O)C3)cc21` [Example 4-24, 6-(3-chloro-2-fluorobenzyl)-1-((1S)-1-(hydroxymethyl)-2-methylpropyl)-7-((3S)-3-hydroxypyrrolidin-1-yl)-4-oxo-1,4-dihydroquinoline-3-carboxylic acid] it is 12 nM.
Turning to `COc1cc2c(cc1Cc1ccc(O)c(Cl)c1F)c(=O)c(C(=O)O)cn2[C@H](CO)C(C)C` [Example 1-4, 6-(3-chloro-2-fluoro-4-hydroxybenzyl)-1-((1S)-1-(hydroxymethyl)-2-methylpropyl)-7-methoxy-4-oxo-1,4-dihydroquinoline-3-carboxylic acid], the IC50 worked out at 25 nM.
As for `CC(C)[C@@H](CO)n1cc(C(=O)O)c(=O)c2cc(Cc3cccc(Cl)c3F)c(OCCN3CCCCC3)cc21` [Example 4-13, 6-(3-chloro-2-fluorobenzyl)-1-((1S)-1-(hydroxymethyl)-2-methylpropyl)-4-oxo-7-(2-(piperidin-1-yl)ethoxy)-1,4-dihydroquinoline-3-carboxylic acid], the figure is 6.3 nM; as for `CC(=O)N[C@H]1CCN(c2cc3c(cc2Cc2cccc(Cl)c2F)c(=O)c(C(=O)O)cn3[C@H](CO)C(C)C)C1` [Example 4-26, 7-((3S)-3-(acetylamino)pyrrolidin-1-yl)-6-(3-chloro-2-fluorobenzyl)-1-((1S)-1-(hydroxymethyl)-2-methylpropyl)-4-oxo-1,4-dihydroquinoline-3-carboxylic acid], 9.2 nM; as for `CC(C)[C@@H](CO)n1cc(C(=O)O)c(=O)c2cc(Cc3cccc(Cl)c3F)c(OCCN3CCN(C)CC3)cc21` [Example 4-51, 6-(3-chloro-2-fluorobenzyl)-1-((1S)-1-(hydroxymethyl)-2-methylpropyl)-7-(2-(4-methylpiperazin-1-yl)ethoxy)-4-oxo-1,4-dihydroquinoline-3-carboxylic acid ditrifluoroacetate], 6 nM.
As for `COc1cc2c(cc1Cc1ccc(F)c(Cl)c1)c(=O)c(C(=O)O)cn2[C@H](CO)C(C)C` [Example 1-1, 6-(3-chloro-4-fluorobenzyl)-1-((1S)-1-(hydroxymethyl)-2-methylpropyl)-7-methoxy-4-oxo-1,4-dihydroquinoline-3-carboxylic acid], the figure is 19 nM.
